How the values were obtained:
Human MCL cell line = test: Combination of Compound A and Btk inhibitor or Bcl-2 inhibitor, cell viability (Cell Counting Kit-8); assay type: cell-based; conditions: combined treatment with Compound A (10, 30 or 100 nmol/L), 6 days
Description: (§1) Treatment concentrations of Compound A were 10, 30 or 100 nmol/L, and treatment concentrations of the Btk inhibitor and the Bcl-2 inhibitor were set between 0.3 to 300 nmol/L or 0.003 to 10 nmol/L, respectively.

[1] = system: Human CD79 mutation-positive DLBCL cell line; test: as above; assay type: cell-based; conditions: combined treatment with Compound A (10, 30 or 100 nmol/L), 6 days
Description: as §1

[2] = system: Human CD79 mutation-positive diffuse large B-cell lymphoma cell line; test: Combination of Compound A and each anticancer agent, cell viability (Cell Counting Kit-8); conditions: combined treatment with Compound A (3, 10, 30 or 100 nmol/L); CD79 mutation-positive DLBCL; 6 days
Protocol: (§6) Human CD79 mutation-positive diffuse large B-cell lymphoma cell lines and human mantle cell lymphoma cell lines were used. The cells were subcultured using RPMI1640 containing 10% non-mobilized fetal bovine serum (hereinafter, the medium) under conditions of 5% CO2 and 37° C.
(§7) The cells suspended in the medium were seeded in 96 well plates at a density of 2500 or 5000 cells/100 μL per well. […] After completion of the culture, the number of surviving cells was measured using Cell Counting Kit-8 (DOJINDO) according to the procedure of the kit.

[3] = system: Human mantle cell lymphoma cell line; test: as above; conditions: combined treatment with Compound A (3, 10, 30 or 100 nmol/L), 6 days
Protocol: as §6, §7

[4] = system: human CD79 mutation-positive diffuse large B-cell lymphoma cell line; test: Antitumor effect in mouse subcutaneous transplantation model; assay type: in vivo; conditions: orally for 21 days; Compound A 10 mg/kg twice a day, Ibrutinib 10 mg/kg once a day; subcutaneous tumor in NOG mice
Protocol: A human CD79 mutation-positive diffuse large B-cell lymphoma cell line was used. The cells were subcultured using Iscove's modified Dulbecco's medium containing 20% inactivated calf serum and 0.5 mmol/L Monothioglycerol under conditions of 5% CO2 and 37° C.
The cells were suspended in HBSS:Matrigel=1:1 and implanted subcutaneously in the abdomen of 7-week-old female NOG mice at 1×10^6 cells/mouse. The tumor volume was measured using a caliper, and calculated by a calculation formula of tumor volume=(major tumor diameter×minor tumor diameter×minor tumor diameter)/2. At the time when the tumor volume reached about 120 mm^3, grouping was performed into 4 groups of 6 mice per group. Compound A was orally administered at a dose of 10 mg/kg twice a day for 21 days, and Ibrutinib was orally administered at a dose of 10 mg/kg once a day for 21 days. Also, the combined administration group was orally administered with 10 mg/kg of Compound A and 10 mg/kg of ibrutinib. The control group was orally administered with a 0.5% methylcellulose solution. After grouping, tumor volume measurements were performed twice a week. T/C (%) was used as an index of the antitumor effect.
Regarding the amount of tumor volume change during the administration period of each group, the combined antitumor effect of Compound A and Ibrutinib was analyzed by a statistical method of two-way ANOVA of EZR (ver. 1.54) software.

[5] = system: Human CD79 mutation-positive diffuse large B-cell lymphoma cell line 1; test: Combined effect on cell viability, Compound A and Btk inhibitor (CellTiter-Glo, in vitro); assay type: cell-based; conditions: combined treatment with Compound A
Protocol: (§2) Using Ibrutinib as a Btk inhibitor, the combined effect on cell viability with Compound A was evaluated in vitro.
(§3) After 6 days of culture from the addition, the cell viability was evaluated as follows.
(§4) Cell viability was evaluated by each treatment by measuring intracellular adenosine triphosphate (ATP) using CellTiter-Glo. That is, 100 μL of CellTiter-Glo solution per well was added to each well and incubated at room temperature for 15 minutes, and then chemiluminescence was measured. The average value of each combination was calculated from the obtained data, and a concentration reaction curve of the cell viability of each drug alone or in combination was created with the luminescence intensity in cells treated with DMSO alone as 100%.
(§5) The half maximal inhibitory concentration (IC50) for each drug was determined using median effect analysis software CalcuSyn 2.0 (CalcuSyn, Inc).

[6] = system: Human CD79 mutation-positive diffuse large B-cell lymphoma cell line 2; test: as above; assay type: cell-based; conditions: combined treatment with Compound A, 6 days of culture
Protocol: as §2, §3, §4, §5

[7] = system: Human CARD11 mutation-positive DLBCL cell line; test: Combination of Compound A and Bcl-2 inhibitor, cell viability (Cell Counting Kit-8); assay type: cell-based; conditions: combined treatment with Compound A (10, 30 or 100 nmol/L), 6 days
Description: as §1

Row | Molecule | Combination index (CI) value, median [2] | Combination index (CI) value, median [3] | further results
1 | O=C(c1ccc(Oc2ccccc2)cc1Cl)c1c[nH]c2ncnc(N[C@@H]3CC[C@@H](CO)OC3)c12 [ARQ-531] |  |  | Combination index (CI) value, median (Human MCL cell line): 0.928; Combination index (CI) value, median [1]: 0.701
2 | CC#CC(=O)N1CCC[C@H]1c1nc(-c2ccc(C(=O)Nc3ccccn3)cc2)c2c(N)nccn12 [Acarabrutinib] |  |  | Combination index (CI) value, median (Human MCL cell line): 0.956; Combination index (CI) value, median [1]: 0.839
3 | Nc1cc(C(F)(F)F)c(-c2cc(N3CCOCC3)nc(N3CCOCC3)n2)cn1 [BKM120] | 0.729 |  | 
4 | C=C(c1ccc(C(=O)O)cc1)c1cc2c(cc1C)C(C)(C)CCC2(C)C [Bexarotene] |  | 0.276 | 
5 | Cc1cc(-c2nc(C(=O)Nc3cc4oc(N5CCOCC5)nc4nc3N3CC[C@@H](O)C3)co2)ccn1 [CA-4948] | 0.905 | 0.846 | 
6 | CO[C@@H](C)c1c(NC(=O)Nc2cnc(-n3nccn3)c(C(F)(F)F)c2)cnc2ccc(Cl)nc12 [Compound A, (S)—N-(6-chloro-4-(1-methoxyethyl)-1,5-naphthyridin-3-yl)-N′-(6-(2H-1,2,3-triazol-2-yl)-5-(trifluoromethyl)pyridin-3-yl)urea] |  |  | T/C (%) [4]: 49.8%
7 | COc1cccc2c1C(=O)c1c(O)c3c(c(O)c1C2=O)C[C@@](O)(C(=O)CO)C[C@@H]3O[C@H]1C[C@H](N)[C@H](O)[C@H](C)O1 [Doxorubicin] | 0.953 | 0.932 | 
8 | Cn1cc(C2=C(c3cn(C4CCN(Cc5ccccn5)CC4)c4ccccc34)C(=O)NC2=O)c2ccccc21 [Enzastaurin] | 0.854 | 0.842 | 
9 | CO[C@H]1C[C@@H]2CC[C@@H](C)[C@@](O)(O2)C(=O)C(=O)N2CCCC[C@H]2C(=O)O[C@H]([C@H](C)C[C@@H]2CC[C@@H](OCCO)[C@H](OC)C2)CC(=O)[C@H](C)/C=C(\C)[C@@H](O)[C@@H](OC)C(=O)[C@H](C)C[C@H](C)/C=C/C=C/C=C/1C [Everolimus] | 0.464 | 0.225 | 
10 | CS(=O)(=O)N1CCN(Cc2cc3nc(-c4cccc5[nH]ncc45)nc(N4CCOCC4)c3s2)CC1 [GDC-0941] | 0.873 | 0.694 | 
11 | C=CC(=O)N1CCC[C@@H](n2nc(-c3ccc(Oc4ccccc4)cc3)c3c(N)ncnc32)C1 [Ibrutinib] |  |  | combination index (CI), median ([5]; cell line 1, 6 days of culture): 0.629; median of CI ([5]; in each cell line (cell lines 1 and 2), synergistic effect): less than 1; combination index (CI), median [6]: 0.504; T/C (%) [4]: 63.1%
12 | CC[C@H](Nc1ncnc2[nH]cnc12)c1nc2cccc(F)c2c(=O)n1-c1ccccc1 [Idelalisib] | 0.528 | 0.457 | 
13 | COc1ccc(F)cc1C(=O)NCc1ccc(-c2nn([C@@H](C)C(F)(F)F)c(N)c2C(N)=O)cc1 [LOXO-305] |  |  | Combination index (CI) value, median (Human MCL cell line): 0.646; Combination index (CI) value, median [1]: 0.764
14 | Nc1cccc2c1CN(C1CCC(=O)NC1=O)C2=O (stereo not drawn) [Lenalidomide] | 0.736 | 0.190 | 
15 | NC1(c2ccc(-c3nc4ccn5c(=O)[nH]nc5c4cc3-c3ccccc3)cc2)CCC1 [MK-2206] | 0.626 | 0.915 | 
16 | NC(=O)c1cnc(N[C@@H]2CCCC[C@@H]2N)nc1Nc1cccc(-n2nccn2)c1 [PRT062607] | 0.630 | 0.820 | 
17 | CC(=O)c1c(C)c2cnc(Nc3ccc(N4CCNCC4)cn3)nc2n(C2CCCC2)c1=O [Palbociclib] | 0.658 | 0.443 | 
18 | C[C@]12C=CC(=O)C=C1CC[C@@H]1[C@@H]2[C@@H](O)C[C@@]2(C)[C@H]1CC[C@]2(O)C(=O)CO [Prednisolone] | 0.168 | 0.854 | 
19 | CN1CCN(c2nc(C3=C(c4c[nH]c5ccccc45)C(=O)NC3=O)c3ccccc3n2)CC1 [Sotrastaurin] | 0.896 | 0.775 | 
20 | CC#CC(=O)N1CC[C@@H](n2c(=O)n(-c3ccc(Oc4ccccc4)cc3)c3c(N)ncnc32)C1 [Tirabrutinib] |  |  | Combination index (CI) value, median (Human MCL cell line): 0.822; Combination index (CI) value, median [1]: 0.761
21 | CC(=O)Nc1cccc(-n2c(=O)n(C3CC3)c(=O)c3c(Nc4ccc(I)cc4F)n(C)c(=O)c(C)c32)c1 [Trametinib] | 0.218 | 0.971 | 
22 | Nc1cc(F)ccc1NC(=O)c1ccc(CNC(=O)/C=C/c2cccnc2)cc1 [Tucidinostat] | 0.756 | 0.668 | 
23 | CC1(C)CCC(CN2CCN(c3ccc(C(=O)NS(=O)(=O)c4ccc(NCC5CCOCC5)c([N+](=O)[O-])c4)c(Oc4cnc5[nH]ccc5c4)c3)CC2)=C(c2ccc(Cl)cc2)C1 [Venetoclax] |  |  | Combination index (CI) value, median [7]: 0.5995; Combination index (CI) value, median (Human MCL cell line): 0.372; Combination index (CI) value, median [1]: 0.5985
24 | O=C(CCCCCCC(=O)Nc1ccccc1)NO [Vorinostat] | 0.930 | 0.866 | 
25 | CN1CCC(c2ccccc2CC(C)(C)Nc2nc(N3CCOCC3)nc(-n3c(C(F)F)nc4ccccc43)n2)CC1 [Zandelisib] | 0.494 | 0.698 | 
26 | C=CC(=O)N1CCC([C@@H]2CCNc3c(C(N)=O)c(-c4ccc(Oc5ccccc5)cc4)nn32)CC1 [Zanubrutinib] |  |  | Combination index (CI) value, median (Human MCL cell line): 0.75; Combination index (CI) value, median [1]: 0.811
27 | Irinotecan (SN-38) | 0.993 | 0.903 | 

Reference: patent publication US20250381181A1, “CANCER TREATMENT AGENT INCLUDING MALT1 INHIBITING DRUG AS ACTIVE INGREDIENT” (ONO PHARMACEUTICAL CO., LTD., priority 2022, published 2025)
